Results as given in US20250263753A1, “BRIDGED CYCLE-BASED INHIBITORS OF DNA-DEPENDENT PROTEIN KINASE AND COMPOSITIONS AND APPLICATION IN GENE EDITING” (Juno Therapeutics, Inc., priority 2023, published 2025).
Like-named read-outs stand apart in the source and are kept apart here.

Columns and labels:
DNA-PK = DNA-PK (Homo sapiens (Human), UniProt P78527); assay: DNA-PK biochemical assay (Reaction Biology HotSpot kinase assay, 10 μM ATP)
Procedure: DNA-PK Biochemical Assay Using Reaction Biology's HotSpot Kinase Assay Protocol:
Reagent: Base Reaction buffer; 20 mM Hepes (pH 7.5), 10 mM MgCl2, 1 mM EGTA, 0.01% Brij35, 0.02 mg/ml BSA, 0.1 mM Na3VO4, 2 mM DTT, 1% DMSO Required cofactors are added individually to each kinase reaction.
Reaction Procedure: 1. Prepare substrate in freshly prepared Reaction Buffer; 2. Deliver any required cofactors to the substrate solution above; 3. Deliver kinase into the substrate solution and gently mix; 4. Deliver compounds in 100% DMSO into the kinase reaction mixture by Acoustic technology (Echo550; nanoliter range), incubate for 20 min at room temperature; 5. Deliver 33P-ATP into the reaction mixture to initiate the reaction; 6. Incubate for 2 hours at room temperature; 7. Detect kinase activity by P81 filter-binding method.

ATM = ATM (Homo sapiens (Human), UniProt Q13315); assay: ATM biochemical assay (Reaction Biology HTRF kinase assay, 10 μM ATP)
Procedure: Ataxia-Telangiectasia Mutated (ATM) Biochemical Assay Using Reaction Biology's HTRF Kinase Assay Protocol:
The assay detects kinase activity by antibody based HTRF assay. The GST-tagged p53 protein serves as substrate and Eu-labeled-antibody with specific phosphorylation site binds upon phosphorylation which is monitored by HTRF from the anti-GST-d2.
Reagent: Reaction buffer; 50 mM Hepes (pH 7.5), 150 mM NaCl, 10 mM MnCl2, 1% Glycerol, 0.01% Brij35, 1 mM DTT, 1% DMSO.
Substrate: Human p53 (aa2-393), RBC produced in E. coli, N-terminal GST-Tag, MW=70.42 kDa.
Detection; MAb Anti-p53-pS15-Eu cryptate, CisBio cat #61P08KAZ; MAb Anti GST-d2
Reaction Procedure: 1. Deliver 2× Enzyme in wells of reaction plate except No E control wells. Add buffer instead; 2. Deliver compounds in 100% DMSO into the kinase reaction mixture by Acoustic technology (Echo550; nanoliter range), incubate for 30 min at room temperature; 3. Deliver 2× substrate+ATP mixture into the reaction mixture to initiate the reaction; 4. Incubate for 2 hours at room temperature.
HTRF Detection: 1. Deliver 2× Stop/Detection mixture and incubate for 2 hours to overnight in the dark. 2. HTRF measurement (Ex/Em1/Em2=320/615/665 nm) in EnVision.

[1] = target: PI3Kδ (His-PIK3CD/PIK3R1, p110 delta/p85 alpha) (Homo sapiens (Human), UniProt O00329); assay: PI3Kδ biochemical assay (HTRF/FRET probe); type: binding; conditions: class symbol
Procedure: Phosphoinositide 3-kinase (PI3K) Biochemical Assay: A solution was prepared containing 0.2 nM Anti-HIS-Terbium (Cisbio, 64CUSTAZU), 40 nM designed-probe and 1.0 nM His-PIK3CD/PIK3R1 (p110 delta/p85 alpha) in FRET Buffer (20 mM HEPES, 10 mM MgCl2, 0.015% Brij-35, 4 mM DTT, 0.05 mg/mL BSA).

[2] = target: PI3Kα (His-PIK3CA/PIK3R1, p110 alpha/p85 alpha) (Homo sapiens (Human), UniProt P42336); assay: PI3Kα biochemical assay (HTRF/FRET probe); type: binding; conditions: class symbol
Procedure: Phosphoinositide 3-kinase α (PI3Kα) Biochemical Assay: A solution was prepared containing 0.2 nM Anti-HIS-Terbium (Cisbio, 64CUSTAZU), 3.7 nM designed-probe and 1.0 nM His-PIK3CA/PIK3R1 (p110 alpha/p85 alpha) in FRET Buffer (20 mM HEPES, 10 mM MgCl2, 0.015% Brij-35, 4 mM DTT, 0.05 mg/mL BSA).

[3] = read-out: DNA-PK HotSpot 10 μM ATP IC50, class symbol
[4] = read-out: ATM HTRF 10 μM ATP IC50, class symbol

Chain of PI3Kδ (His-PIK3CD/PIK3R1, p110 delta/p85 alpha) (O00329 whole entry, species assumed): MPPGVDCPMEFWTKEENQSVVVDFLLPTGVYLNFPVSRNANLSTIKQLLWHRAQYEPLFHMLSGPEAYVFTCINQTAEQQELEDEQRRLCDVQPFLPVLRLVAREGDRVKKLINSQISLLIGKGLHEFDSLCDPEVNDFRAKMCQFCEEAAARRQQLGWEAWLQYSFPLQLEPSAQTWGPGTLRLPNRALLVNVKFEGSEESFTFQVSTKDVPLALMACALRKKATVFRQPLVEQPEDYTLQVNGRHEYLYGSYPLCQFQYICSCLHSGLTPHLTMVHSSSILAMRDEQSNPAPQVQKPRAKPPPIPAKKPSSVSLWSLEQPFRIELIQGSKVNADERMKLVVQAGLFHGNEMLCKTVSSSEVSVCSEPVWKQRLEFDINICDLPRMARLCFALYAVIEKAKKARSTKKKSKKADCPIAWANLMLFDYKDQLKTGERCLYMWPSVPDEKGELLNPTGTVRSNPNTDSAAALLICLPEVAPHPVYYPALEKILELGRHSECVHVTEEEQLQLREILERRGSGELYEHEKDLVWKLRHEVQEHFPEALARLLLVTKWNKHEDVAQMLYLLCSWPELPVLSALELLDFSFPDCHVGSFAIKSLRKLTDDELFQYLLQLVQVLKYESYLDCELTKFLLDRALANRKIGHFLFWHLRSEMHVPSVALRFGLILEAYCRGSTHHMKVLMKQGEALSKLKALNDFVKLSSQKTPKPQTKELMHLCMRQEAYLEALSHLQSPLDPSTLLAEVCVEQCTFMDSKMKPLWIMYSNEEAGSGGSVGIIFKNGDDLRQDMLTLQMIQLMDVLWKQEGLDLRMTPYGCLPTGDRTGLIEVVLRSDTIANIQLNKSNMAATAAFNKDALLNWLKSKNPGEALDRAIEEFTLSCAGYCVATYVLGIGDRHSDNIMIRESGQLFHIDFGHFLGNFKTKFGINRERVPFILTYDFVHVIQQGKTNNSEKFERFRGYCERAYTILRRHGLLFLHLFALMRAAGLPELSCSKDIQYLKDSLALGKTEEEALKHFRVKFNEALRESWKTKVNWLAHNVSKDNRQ
Chain of PI3Kδ (His-PIK3CD/PIK3R1, p110 delta/p85 alpha) (P27986 whole entry partner, species assumed): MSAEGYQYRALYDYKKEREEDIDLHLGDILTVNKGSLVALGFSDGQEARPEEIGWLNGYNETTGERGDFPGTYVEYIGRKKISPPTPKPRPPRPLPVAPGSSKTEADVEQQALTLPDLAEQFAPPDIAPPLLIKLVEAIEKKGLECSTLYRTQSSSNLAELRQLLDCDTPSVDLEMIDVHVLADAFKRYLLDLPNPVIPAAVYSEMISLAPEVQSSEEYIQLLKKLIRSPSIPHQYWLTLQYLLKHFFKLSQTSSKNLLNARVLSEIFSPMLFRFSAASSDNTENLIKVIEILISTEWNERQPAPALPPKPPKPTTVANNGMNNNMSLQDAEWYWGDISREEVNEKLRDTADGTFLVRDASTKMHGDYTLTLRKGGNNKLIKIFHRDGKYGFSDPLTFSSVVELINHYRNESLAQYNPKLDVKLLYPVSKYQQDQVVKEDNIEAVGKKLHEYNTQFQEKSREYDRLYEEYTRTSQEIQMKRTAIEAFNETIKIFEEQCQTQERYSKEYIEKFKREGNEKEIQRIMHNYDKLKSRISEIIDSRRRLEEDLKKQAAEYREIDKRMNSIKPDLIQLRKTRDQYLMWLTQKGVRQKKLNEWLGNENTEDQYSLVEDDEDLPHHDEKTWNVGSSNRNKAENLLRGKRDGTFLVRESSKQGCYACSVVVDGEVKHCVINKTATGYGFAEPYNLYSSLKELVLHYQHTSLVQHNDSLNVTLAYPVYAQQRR
Chain of PI3Kα (His-PIK3CA/PIK3R1, p110 alpha/p85 alpha) (P42336 whole entry, species assumed): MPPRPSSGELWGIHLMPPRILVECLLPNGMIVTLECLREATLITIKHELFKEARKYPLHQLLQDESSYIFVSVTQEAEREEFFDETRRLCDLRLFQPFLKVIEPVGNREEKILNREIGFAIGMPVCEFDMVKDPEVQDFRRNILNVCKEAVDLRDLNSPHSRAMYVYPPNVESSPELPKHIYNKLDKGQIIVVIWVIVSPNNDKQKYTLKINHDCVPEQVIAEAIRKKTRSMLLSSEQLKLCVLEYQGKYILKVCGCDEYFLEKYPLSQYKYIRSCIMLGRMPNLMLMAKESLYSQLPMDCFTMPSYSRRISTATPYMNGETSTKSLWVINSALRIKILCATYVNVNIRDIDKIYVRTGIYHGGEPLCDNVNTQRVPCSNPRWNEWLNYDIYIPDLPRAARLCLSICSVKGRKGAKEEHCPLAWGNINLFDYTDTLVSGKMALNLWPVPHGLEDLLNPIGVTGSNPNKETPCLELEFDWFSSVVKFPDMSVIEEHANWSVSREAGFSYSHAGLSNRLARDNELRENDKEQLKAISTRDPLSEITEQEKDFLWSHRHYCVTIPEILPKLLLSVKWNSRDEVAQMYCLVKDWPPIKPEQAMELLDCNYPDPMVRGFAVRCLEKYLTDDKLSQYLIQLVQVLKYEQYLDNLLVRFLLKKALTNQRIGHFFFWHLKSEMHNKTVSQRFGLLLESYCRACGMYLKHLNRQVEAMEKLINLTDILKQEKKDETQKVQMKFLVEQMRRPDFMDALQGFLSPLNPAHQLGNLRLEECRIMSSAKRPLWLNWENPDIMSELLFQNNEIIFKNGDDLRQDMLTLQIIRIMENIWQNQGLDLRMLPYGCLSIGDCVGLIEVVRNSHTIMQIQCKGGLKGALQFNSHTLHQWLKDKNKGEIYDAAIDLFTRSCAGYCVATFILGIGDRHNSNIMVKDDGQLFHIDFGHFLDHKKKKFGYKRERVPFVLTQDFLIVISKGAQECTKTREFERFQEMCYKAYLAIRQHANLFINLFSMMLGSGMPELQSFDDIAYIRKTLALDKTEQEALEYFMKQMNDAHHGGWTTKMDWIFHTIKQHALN
Chain of PI3Kα (His-PIK3CA/PIK3R1, p110 alpha/p85 alpha) (P27986 whole entry partner, species assumed): as the sequence (P27986 whole entry partner, species assumed) above

`Cc1cc2c(cc1Nc1ncc3c(C)nn(C45CC(C4)C5)c3n1)OCO2` [Compound 48, 1-(bicyclo[1.1.1]pentan-1-yl)-3-methyl-N-(6-methylbenzo[d][1,3]dioxol-5-yl)-1H-pyrazolo[3,4-d]pyrimidin-6-amine] was tested, and the IC50 (DNA-PK; class symbol) was 1 to 10 nM, the IC50 (ATM; class symbol) was 100 to 1000 nM and the IC50 [1] was at least 1000 nM. It also gave an IC50 [2] of at least 1000 nM.
Work on `Cc1cc2nccnc2cc1Nc1ncc2c(C)nn(C34CC(C3)C4)c2n1` [Compound 49, N-(1-(bicyclo[1.1.1]pentan-1-yl)-3-methyl-1H-pyrazolo[3,4-d]pyrimidin-6-yl)-7-methylquinoxalin-6-amine] yielded an IC50 (DNA-PK; [3]) of under 1 nM, an IC50 (ATM; class symbol) of 10 to 100 nM and an IC50 [1] of 100 to 1000 nM. It also gave an IC50 [2] of 100 to 1000 nM.
`Cc1cc2nsnc2cc1Nc1ncc2c(C)nn(C34CC(C3)C4)c2n1` [Compound 50, N-(1-(bicyclo[1.1.1]pentan-1-yl)-3-methyl-1H-pyrazolo[3,4-d]pyrimidin-6-yl)-6-methylbenzo[c][1,2,5]thiadiazol-5-amine] was tested, and the IC50 (DNA-PK; [3]) was under 1 nM, the IC50 (ATM; class symbol) was 10 to 100 nM and the IC50 [1] was at least 1000 nM. It also gave an IC50 [2] of at least 1000 nM.
`Cc1cc2ncnn2cc1Nc1ncc2c(n1)N(C13CCC(O)(CC1)C3)CC(=O)N2C` [Compound 51, 8-{4-Hydroxybicyclo[2.2.1]heptan-1-yl}-5-methyl-2-({7-methyl-[1,2,4]triazolo[1,5-a]pyridin-6-yl}amino)-5,6,7,8-tetrahydropteridin-6-one] gave an IC50 (DNA-PK; class symbol) of 1 to 10 nM, an IC50 (ATM; class symbol) of 100 to 1000 nM and an IC50 [1] of 100 to 1000 nM. The IC50 [2] was 100 to 1000 nM.
In the case of `Cc1cc2c(cc1Nc1ncc3c(n1)N(C14CCC(O)(CC1)C4)CC(=O)N3C)OCO2` [Compound 52, 8-{4-Hydroxybicyclo[2.2.1]heptan-1-yl}-5-methyl-2-[(6-methyl-2H-1,3-benzodioxol-5-yl)amino]-5,6,7,8-tetrahydropteridin-6-one], the IC50 (DNA-PK; class symbol) is reported as 10 to 100 nM, the IC50 (ATM; [4]) is reported as at least 1000 nM and the IC50 [1] is reported as at least 1000 nM. For the same compound, the IC50 [2] was at least 1000 nM.
`Cc1cc2ncnn2cc1Nc1ncc2c(n1)N(C13CC(F)(C1)C3)CC(=O)N2C` [Compound 54, 8-{3-Fluorobicyclo[1.1.1]pentan-1-yl}-5-methyl-2-({7-methyl-[1,2,4]triazolo[1,5-a]pyridin-6-yl}amino)-5,6,7,8-tetrahydropteridin-6-one] gave an IC50 (DNA-PK; class symbol) of 1 to 10 nM, an IC50 (ATM; [4]) of at least 1000 nM and an IC50 [1] of at least 1000 nM. For the same compound, the IC50 [2] was at least 1000 nM.
With `Cc1cc2nsnc2cc1Nc1ncc2c(n1)N(C13CCC(O)(CC1)C3)CC(=O)N2C` [Compound 55, 8-{4-Hydroxybicyclo[2.2.1]heptan-1-yl}-5-methyl-2-[(6-methyl-2,1,3-benzothiadiazol-5-yl)amino]-5,6,7,8-tetrahydropteridin-6-one] the IC50 (DNA-PK; [3]) was under 1 nM, the IC50 (ATM; class symbol) was 1 to 10 nM and the IC50 [1] was 100 to 1000 nM. It also gave an IC50 [2] of 10 to 100 nM.
In the case of `Cc1cc2c(cc1Nc1ncc3c(n1)N(C14CC(F)(C1)C4)CC(=O)N3C)OCO2` [Compound 56, 8-{3-Fluorobicyclo[1.1.1]pentan-1-yl}-5-methyl-2-[(6-methyl-2H-1,3-benzodioxol-5-yl)amino]-5,6,7,8-tetrahydropteridin-6-one], the IC50 (DNA-PK; class symbol) is reported as 10 to 100 nM, the IC50 (ATM; [4]) is reported as at least 1000 nM and the IC50 [1] is reported as at least 1000 nM. For the same compound, the IC50 [2] was at least 1000 nM.
`Cc1cc2ncccc2cc1Nc1ncc2c(n1)N(C13CC(F)(C1)C3)CC(=O)N2C` [Compound 57, 8-(3-fluorobicyclo[1.1.1]pentan-1-yl)-5-methyl-2-((7-methylquinolin-6-yl)amino)-7,8-dihydropteridin-6(5H)-one] gave an IC50 (DNA-PK; class symbol) of 1 to 10 nM, an IC50 (ATM; class symbol) of 10 to 100 nM and an IC50 [1] of 100 to 1000 nM. It also gave an IC50 [2] of 100 to 1000 nM.
Work on `Cc1cc2nccnc2cc1Nc1ncc2c(n1)N(C13CCC(O)(CC1)C3)CC(=O)N2C` [Compound 59, 8-(4-hydroxybicyclo[2.2.1]heptan-1-yl)-5-methyl-2-((7-methylquinoxalin-6-yl)amino)-7,8-dihydropteridin-6(5H)-one] yielded an IC50 (DNA-PK; [3]) of under 1 nM, an IC50 (ATM; class symbol) of 10 to 100 nM and an IC50 [1] of 100 to 1000 nM. For the same compound, the IC50 [2] was 100 to 1000 nM.
For `Cc1cc2nonc2cc1Nc1ncc2c(n1)N(C13CCC(O)(CC1)C3)CC(=O)N2C` [Compound 60, 8-(4-hydroxybicyclo[2.2.1]heptan-1-yl)-5-methyl-2-((6-methylbenzo[c][1,2,5]oxadiazol-5-yl)amino)-7,8-dihydropteridin-6(5H)-one], the IC50 (DNA-PK; [3]) was under 1 nM, the IC50 (ATM; class symbol) was 10 to 100 nM and the IC50 [1] was 100 to 1000 nM. It also gave an IC50 [2] of 100 to 1000 nM.
`Cc1cc2nnccc2cc1Nc1ncc2c(n1)N(C13CCC(O)(CC1)C3)CC(=O)N2C` [Compound 61, 8-(4-hydroxybicyclo[2.2.1]heptan-1-yl)-5-methyl-2-((7-methylcinnolin-6-yl)amino)-7,8-dihydropteridin-6(5H)-one] was tested, and the IC50 (DNA-PK; [3]) was under 1 nM, the IC50 (ATM; class symbol) was 1 to 10 nM and the IC50 [1] was 100 to 1000 nM. The IC50 [2] was 10 to 100 nM.
For `COC12CCC(N3CC(=O)N(C)c4cnc(Nc5cn6ncnc6cc5C)nc43)(CC1)C2` [Compound 62, 8-(4-methoxybicyclo[2.2.1]heptan-1-yl)-5-methyl-2-((7-methyl-[1,2,4]triazolo[1,5-a]pyridin-6-yl)amino)-7,8-dihydropteridin-6(5H)-one], the IC50 (DNA-PK; [3]) was under 1 nM, the IC50 (ATM; class symbol) was 10 to 100 nM and the IC50 [1] was at least 1000 nM. The IC50 [2] was at least 1000 nM.
`COC12CCC(N3CC(=O)N(C)c4cnc(Nc5cc6c(cc5C)OCO6)nc43)(CC1)C2` [Compound 63, 8-(4-methoxybicyclo[2.2.1]heptan-1-yl)-5-methyl-2-((6-methylbenzo[d][1,3]dioxol-5-yl)amino)-7,8-dihydropteridin-6(5H)-one] gave an IC50 (DNA-PK; class symbol) of 1 to 10 nM, an IC50 (ATM; class symbol) of 100 to 1000 nM and an IC50 [1] of 100 to 1000 nM. The IC50 [2] was at least 1000 nM.
With `COC12CCC(N3CC(=O)N(C)c4cnc(Nc5cc6nsnc6cc5C)nc43)(CC1)C2` [Compound 64, 8-(4-methoxybicyclo[2.2.1]heptan-1-yl)-5-methyl-2-((6-methylbenzo[c][1,2,5]thiadiazol-5-yl)amino)-7,8-dihydropteridin-6(5H)-one] the IC50 (DNA-PK; [3]) was under 1 nM, the IC50 (ATM; class symbol) was 1 to 10 nM and the IC50 [1] was 100 to 1000 nM. The IC50 [2] was 10 to 100 nM.
For `COC12CCC(N3CC(=O)N(C)c4cnc(Nc5cc6cccnc6cc5C)nc43)(CC1)C2` [Compound 65, 8-(4-methoxybicyclo[2.2.1]heptan-1-yl)-5-methyl-2-((7-methylquinolin-6-yl)amino)-7,8-dihydropteridin-6(5H)-one], the IC50 (DNA-PK; [3]) was under 1 nM, the IC50 (ATM; class symbol) was 1 to 10 nM and the IC50 [1] was 100 to 1000 nM. It also gave an IC50 [2] of 10 to 100 nM.
In the case of `Cc1cc2ncnn2cc1Nc1ncc2c(n1)N(C13CCC(O)(CC1)C3)C(=O)C21CC1` [Compound 66, 7′-(4-hydroxybicyclo[2.2.1]heptan-1-yl)-2′-((7-methyl-[1,2,4]triazolo[1,5-a]pyridin-6-yl)amino)spiro[cyclopropane-1,5′-pyrrolo[2,3-d]pyrimidin]-6′(7′H)-one], the IC50 (DNA-PK; [3]) is reported as under 1 nM, the IC50 (ATM; class symbol) is reported as 100 to 1000 nM and the IC50 [1] is reported as 100 to 1000 nM. The IC50 [2] was 10 to 100 nM.
`Cc1cc2nccnc2cc1Nc1ncc2c(n1)N(C13CCC(O)(CC1)C3)C(=O)C21CC1` [Compound 67, 7′-(4-hydroxybicyclo[2.2.1]heptan-1-yl)-2′-((7-methylquinoxalin-6-yl)amino)spiro[cyclopropane-1,5′-pyrrolo[2,3-d]pyrimidin]-6′(7′H)-one] gave an IC50 (DNA-PK; [3]) of under 1 nM, an IC50 (ATM; class symbol) of 100 to 1000 nM and an IC50 [1] of 100 to 1000 nM. The IC50 [2] was 10 to 100 nM.
For `Cc1cc2c(cc1Nc1ncc3c(n1)N(C14CCC(O)(CC1)C4)C(=O)C31CC1)OCO2` [Compound 68, 7′-(4-hydroxybicyclo[2.2.1]heptan-1-yl)-2′-((6-methylbenzo[d][1,3]dioxol-5-yl)amino)spiro[cyclopropane-1,5′-pyrrolo[2,3-d]pyrimidin]-6′(7′H)-one], the IC50 (DNA-PK; [3]) was under 1 nM, the IC50 (ATM; [4]) was at least 1000 nM and the IC50 [1] was 100 to 1000 nM. It also gave an IC50 [2] of 100 to 1000 nM.
